In patent US9802927B2, “Oxadiazine compounds and methods of use thereof” (Denali Therapeutics, Inc., priority 2015, dated 2017):

system: Aβ42; assay: In vitro cell screening assay in H4 cells expressing human APP751: Aβ42 by sandwich ELISA; format: cell-based; conditions: Homo sapiens, compounds 0.003-10 μM, incubated overnight (16-18 h), sandwich ELISA of supernatant
Outline: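 Secreted Aβ42 measured by sandwich ELISA, C-terminal-specific capture and 4G8-HRP detection, TMB read at 450 nm, from supernatants of APP751-expressing H4 cells exposed overnight (16-18 h) to 0.003-10 μM compound in Pro293 medium, 0.33% DMSO. Data scaled between DMSO and DAPT controls; EC50 from variable-slope nonlinear regression.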

Row | EC50 [nM] | SMILES
1 | 2130 | COc1nc(C2=NOCC(C3CCC(F)(F)CC3)N2)ccc1-n1cnc(C)c1 (single isomer, unassigned; (-)) [Example 139A, (−)-5-(4,4-difluorocyclohexyl)-3-(6-methoxy-5-(4-methyl-1H-imidazol-1-yl)pyridin-2-yl)-5,6-dihydro-4H-1,2,4-oxadiazine]
2 | > 3000 | COc1nc(C2=NOCC(C3CCOCC3)N2)ccc1-n1cnc(C)c1 (single isomer, unassigned; (-)) [Example 143A, (−)-3-(6-methoxy-5-(4-methyl-1H-imidazol-1-yl)pyridin-2-yl)-5-(tetrahydro-2H-pyran-4-yl)-5,6-dihydro-4H-1,2,4-oxadiazine]

same assay, conditions: compounds 0.003-10 μM, incubated overnight (16-18 h), sandwich ELISA of supernatant

Row | EC50 [nM] | SMILES
3 | 54.9 | CCn1cc(C2CON=C(c3ccc(-n4cnc(C)c4)c(OC)n3)N2)c2cc(Cl)c(F)cc21 (single isomer, unassigned; (-)) [Example 73A, (−)-5-(5-chloro-1-ethyl-6-fluoro-1H-indol-3-yl)-3-(6-methoxy-5-(4-methyl-1H-imidazol-1-yl)pyridin-2-yl)-5,6-dihydro-4H-1,2,4-oxadiazine]
4 | > 3000 | COc1nc(C2=NOCC(c3ccc(F)c(F)c3)N2)ccc1-n1cnc(C)c1 (single isomer, unassigned; (-)) [Example 75A, (−)-5-(3,4-difluorophenyl)-3-(6-methoxy-5-(4-methyl-1H-imidazol-1-yl)pyridin-2-yl)-5,6-dihydro-4H-1,2,4-oxadiazine]
5 | 1280 | COc1nc(C2=NOCC(c3cc4ccc(Cl)cc4o3)N2)ccc1-n1cnc(C)c1 (single isomer, unassigned; (-)) [Example 78A, (−)-5-(6-chlorobenzofuran-2-yl)-3-(6-methoxy-5-(4-methyl-1H-imidazol-1-yl)pyridin-2-yl)-5,6-dihydro-4H-1,2,4-oxadiazine]
6 | > 3000 | COc1nc(C2=NOCC(c3cc(F)cc(F)c3)N2)ccc1-n1cnc(C)c1 (single isomer, unassigned; (-)) [Example 81A, (−)-5-(3,5-difluorophenyl)-3-(6-methoxy-5-(4-methyl-1H-imidazol-1-yl)pyridin-2-yl)-5,6-dihydro-4H-1,2,4-oxadiazine]
7 | 944 | COc1nc(C2=NOCC(c3cc4cc(F)ccc4o3)N2)ccc1-n1cnc(C)c1 (single isomer, unassigned; (-)) [Example 84A, (−)-5-(5-fluorobenzofuran-2-yl)-3-(6-methoxy-5-(4-methyl-1H-imidazol-1-yl)pyridin-2-yl)-5,6-dihydro-4H-1,2,4-oxadiazine]
8 | 1550 | COc1nc(C2=NOCC(c3ccc(Cl)c(C)c3)N2)ccc1-n1cnc(C)c1 (single isomer, unassigned; (-)) [Example 86A, (−)-5-(4-chloro-3-methylphenyl)-3-(6-methoxy-5-(4-methyl-1H-imidazol-1-yl)pyridin-2-yl)-5,6-dihydro-4H-1,2,4-oxadiazine]
9 | 2340 | COc1nc(C2=NOCC(c3cc4cccc(F)c4o3)N2)ccc1-n1cnc(C)c1 (single isomer, unassigned; (-)) [Example 89A, (−)-5-(7-fluorobenzofuran-2-yl)-3-(6-methoxy-5-(4-methyl-1H-imidazol-1-yl)pyridin-2-yl)-5,6-dihydro-4H-1,2,4-oxadiazine]
10 | > 3000 | COc1nc(C2=NOCC(c3cc(F)c(F)c(F)c3)N2)ccc1-n1cnc(C)c1 (single isomer, unassigned; (-)) [Example 91A, (−)-3-(6-methoxy-5-(4-methyl-1H-imidazol-1-yl)pyridin-2-yl)-5-(3,4,5-trifluorophenyl)-5,6-dihydro-4H-1,2,4-oxadiazine]
11 | > 3000 | COc1nc(C2=NOCC(c3ccc(OC(F)F)cc3)N2)ccc1-n1cnc(C)c1 (single isomer, unassigned; (-)) [Example 93A, (−)-5-(4-(difluoromethoxy)phenyl)-3-(6-methoxy-5-(4-methyl-1H-imidazol-1-yl)pyridin-2-yl)-5,6-dihydro-4H-1,2,4-oxadiazine]
12 | 1010 | COc1nc(C2=NOCC(c3cc4c(Cl)cccc4o3)N2)ccc1-n1cnc(C)c1 (single isomer, unassigned; (-)) [Example 96A, (−)-5-(4-chlorobenzofuran-2-yl)-3-(6-methoxy-5-(4-methyl-1H-imidazol-1-yl)pyridin-2-yl)-5,6-dihydro-4H-1,2,4-oxadiazine]
13 | 25.7 | COc1nc(C2=NOCC(c3cc4c(F)cccc4o3)N2)ccc1-n1cnc(C)c1 (single isomer, unassigned; (-)) [Example 99B, (−)-5-(4-fluorobenzofuran-2-yl)-3-(6-methoxy-5-(4-methyl-1H-imidazol-1-yl)pyridin-2-yl)-5,6-dihydro-4H-1,2,4-oxadiazine]
14 | 1570 | COc1nc(C2=NOCC(c3oc4ccc(F)cc4c3C)N2)ccc1-n1cnc(C)c1 (single isomer, unassigned; (-)) [Example 101A, (−)-5-(5-fluoro-3-methylbenzofuran-2-yl)-3-(6-methoxy-5-(4-methyl-1H-imidazol-1-yl)pyridin-2-yl)-5,6-dihydro-4H-1,2,4-oxadiazine]
15 | 167 | COc1nc(C2=NOCC(c3cn(C)c4cc(F)c(C(F)(F)F)cc34)N2)ccc1-n1cnc(C)c1 (single isomer, unassigned; (-)) [Example 104A, (−)-5-(6-fluoro-1-methyl-5-(trifluoromethyl)-1H-indol-3-yl)-3-(6-methoxy-5-(4-methyl-1H-imidazol-1-yl)pyridin-2-yl)-5,6-dihydro-4H-1,2,4-oxadiazine]
16 | > 3000 | COc1nc(C2=NOCC(c3ccc(Cl)c(F)c3)N2)ccc1-n1cnc(C)c1 (single isomer, unassigned; (-)) [Example 106A, (−)-5-(4-chloro-3-fluorophenyl)-3-(6-methoxy-5-(4-methyl-1H-imidazol-1-yl)pyridin-2-yl)-5,6-dihydro-4H-1,2,4-oxadiazine]
17 | 2630 | COc1nc(C2=NOCC(c3ccc(F)c(Cl)c3)N2)ccc1-n1cnc(C)c1 (single isomer, unassigned; (-)) [Example 108A, (−)-5-(3-chloro-4-fluorophenyl)-3-(6-methoxy-5-(4-methyl-1H-imidazol-1-yl)pyridin-2-yl)-5,6-dihydro-4H-1,2,4-oxadiazine]
18 | > 3000 | COc1nc(C2=NOCC(c3cc(F)cc(Cl)c3)N2)ccc1-n1cnc(C)c1 (single isomer, unassigned; (-)) [Example 111A, (−)-5-(3-chloro-5-fluorophenyl)-3-(6-methoxy-5-(4-methyl-1H-imidazol-1-yl)pyridin-2-yl)-5,6-dihydro-4H-1,2,4-oxadiazine]
19 | > 3000 | COc1nc(C2=NOCC(c3cccc(C(F)(F)F)c3)N2)ccc1-n1cnc(C)c1 (single isomer, unassigned; (-)) [Example 113A, (−)-3-(6-methoxy-5-(4-methyl-1H-imidazol-1-yl)pyridin-2-yl)-5-(3-(trifluoromethyl)phenyl)-5,6-dihydro-4H-1,2,4-oxadiazine]
20 | 767 | COc1nc(C2=NOCC(c3ccc(C4CC4)cc3)N2)ccc1-n1cnc(C)c1 (single isomer, unassigned; (-)) [Example 116A, (−)-5-(4-cyclopropylphenyl)-3-(6-methoxy-5-(4-methyl-1H-imidazol-1-yl)pyridin-2-yl)-5,6-dihydro-4H-1,2,4-oxadiazine]
21 | 1510 | COc1nc(C2=NOCC(c3cc(Cl)cc(Cl)c3)N2)ccc1-n1cnc(C)c1 (single isomer, unassigned; (-)) [Example 118A, (−)-5-(3,5-dichlorophenyl)-3-(6-methoxy-5-(4-methyl-1H-imidazol-1-yl)pyridin-2-yl)-5,6-dihydro-4H-1,2,4-oxadiazine]
22 | 1060 | COc1nc(C2=NOCC(c3nn(C)c4ccccc34)N2)ccc1-n1cnc(C)c1 (single isomer, unassigned; (-)) [Example 124A, (−)-3-(6-methoxy-5-(4-methyl-1H-imidazol-1-yl)pyridin-2-yl)-5-(1-methyl-1H-indazol-3-yl)-5,6-dihydro-4H-1,2,4-oxadiazine]
23 | 1030 | COc1nc(C2=NOCC(c3cccc(C4CC4)c3)N2)ccc1-n1cnc(C)c1 (single isomer, unassigned; (-)) [Example 127A, (−)-5-(3-cyclopropylphenyl)-3-(6-methoxy-5-(4-methyl-1H-imidazol-1-yl)pyridin-2-yl)-5,6-dihydro-4H-1,2,4-oxadiazine]
24 | > 3000 | COc1nc(C2=NOCC(c3ccccc3C)N2)ccc1-n1cnc(C)c1 (single isomer, unassigned; (-)) [Example 131B, (−)-3-(6-methoxy-5-(4-methyl-1H-imidazol-1-yl)pyridin-2-yl)-5-(o-tolyl)-5,6-dihydro-4H-1,2,4-oxadiazine]
25 | > 3000 | COc1nc(C2=NOCC(c3cccc(C#N)c3)N2)ccc1-n1cnc(C)c1 (single isomer, unassigned; (-)) [Example 141A, (−)-3-(3-(6-methoxy-5-(4-methyl-1H-imidazol-1-yl)pyridin-2-yl)-5,6-dihydro-4H-1,2,4-oxadiazin-5-yl) benzonitrile]
26 | 2670 | COc1cccc(C2CON=C(c3ccc(-n4cnc(C)c4)c(OC)n3)N2)c1 (single isomer, unassigned; (-)) [Example 145A, (−)-3-(6-methoxy-5-(4-methyl-1H-imidazol-1-yl)pyridin-2-yl)-5-(3-methoxyphenyl)-5,6-dihydro-4H-1,2,4-oxadiazine]
27 | 130 | COc1nc(C2=NOCC(C(C)(C)C)N2)ccc1-n1cnc(C)c1 (single isomer, unassigned; (-)) [Example 147A, (−)-5-(tert-butyl)-3-(6-methoxy-5-(4-methyl-1H-imidazol-1-yl)pyridin-2-yl)-5,6-dihydro-4H-1,2,4-oxadiazine]
28 | > 3000 | COc1nc(C2=NOCC(C)N2)ccc1-n1cnc(C)c1 (single isomer, unassigned; (-)) [Example 149B, (−)-3-(6-methoxy-5-(4-methyl-1H-imidazol-1-yl)pyridin-2-yl)-5-methyl-5,6-dihydro-4H-1,2,4-oxadiazine]
